The text below walks through data of patent US8268836B2, “Compound useful as a c-Met inhibitor” (Eli Lilly and Company, priority 2010, dated 2012).

Assay [1] concerns the target T1, human c-Met (phospho-c-Met in S114 tumors) (Homo sapiens, UniProt P08581).
T1 construct: expressed in transfected cells; host or cells: S114 cells grown as subcutaneous tumors in athymic nude mice
Put plainly: c-Met in vivo target inhibition (IVTI) assay, S114 tumors in nude mice. On the set-up: species or system mouse. How it is done: S114 cells (over-expressing both human HGF and human c-Met) are cultured in a growth media (Dulbecco's Modified Eagle Medium) supplemented with 10% fetal calf serum and expanded. Cells are harvested and washed twice with phosphate buffered saline and 2×10^6 cells are mixed with equal volume of BD Matrigel™ matrix (BD Bioscience, Franklin, N.J.), and injected subcutaneously into the flank of nude mice (athymic nude, from Harlan, Indianapolis, Ind.). At day 8 after implant, compounds (formulated in 10% acacia or 1% carboxymethylcellulose/0.5% sodium lauryl sulfate/0.05% antifoam as suspension) are administered to animals by oral gavage at 50 mg/kg. Animals are sacrificed at 2 h post dose, and tumors are harvested and stored frozen until needed.
Frozen tumors are pulverized using motar-pestel. The pulverized tissues are transferred to a tube containing Lysing Matrix D beads (MP Biomedicals, Solon, Ohio) and 600 μL lysis buffer (RIPA buffer, containing 50 mM Tris-HCl, pH 7.4, 150 mM NaCl, 1% NP-40, 0.5% sodium deoxycholate, 0.1% SDS, from Boston Bioproducts, Phosphatase Inhibitors I and II and Protease Inhibitor (Sigma, St. Louis, Mo.)). A FastPrep® Cell Disrupter (MP Biomedicals, Inc.) is used to disrupt the tissue and lyse the cells. Lysates are passed through a 20 gauge needle and transferred to a clean tube. Protein concentration is determined by Bradford method known to one of skill in the art.
Tumor lysates are loaded onto MSD® phosphor-Met ELISA plates and phosphor-c-Met level is determined using the same protocol as H460 cell-based ELISA. […] The TEC50 for example 1 is 0.18 μM with a 95% confidence interval bounded by 0.13 μM and 0.23 μM.
In IVTI studies, each compound is administered orally and formulated in 10% w/v acacia. Mouse blood samples are collected with anti-coagulant (EDTA-purple top Vacutainer tube) post-dose using cardiac puncture techniques. Tubes are inverted for 3-5 times and are placed on ice until centrifugation at 3000 RPM (1800×g) for 10 min at 4° C. to obtain plasma. Aliquots of plasma are pipetted and stored in a clean 96 well plate. Plasma samples are stored immediately at −80° C. Shipments of plasma samples are packed in dry ice and samples are frozen at −80° C. until analysis.

For assay [2], the target named is T2, Met (pY1349) in NCl-H460 cells (Homo sapiens, UniProt P08581).
T2 construct: host or cells: NCI-H460
Put plainly: HGF stimulated Met (pY1349) NCI-H460 cell-based ELISA. To be noted: HGF 100 ng/mL stimulated NCI-H460 cells; read-out: relative IC50, H460 assay (c-Met phosphorylation). How it is done:
NCl—H460 cells (purchased from ATCC) are cultured in RPMI 1640 media (Invitrogen) supplemented with 10% Fetal Bovine Serum (FBS) and plated (prior to becoming 70% confluent) in 96-well flat-bottom plates at a density of 20,000 cells per well in 80 μL volume. The cells are then incubated overnight in a cell culture incubator (5% CO2, 95% Relative Humidity (RH) and 37° C.) and allowed to attach to the plate. The following morning the cells are washed with 2 volumes of a Reduced Serum Media (RSM, RPMI 1640 media supplemented with 0.5% FBS). After removal of the last wash, 80 μL of RSM is added to each well of the cell plates. The cell plates are incubated for 2.5 h in a cell culture incubator, and then dosed with compounds. Compound inhibitors are first solubilized at 10 mM in 100% DMSO and then diluted to 100 μM with 2% DMSO RSM. […] After 1 h capture (at RT) the MSD® plate wells are washed with 1× Tris Wash Buffer, and then 150 μL of 1× Read Buffer T (with surfactant, MSD®) is added. Immediately after the addition of the Read Buffer, the plates are analyzed with a SECTOR 6000 MSD® Imager plate reader. Relative IC50 values are determined using MSD activity units by calculating percent inhibition with respect to on-plate “MIN” and “MAX” controls and then fitting the percent inhibition values and ten-point dose response data to a four-parameter logistic equation.

The target of the next assay is 99 kinases. Put plainly: Cerep Express Diversity Kinase Profile screening. The class given is biochemical. The source says: The Express Diversity Kinase Profile™ is a screening service developed by Cerep SA (Paris, France). Details of assay conditions and/or contact information can be found on their website http://www.cerep.fecerep/users/pages/catalog/profiles/catalog.asp).

T1 sequence (P08581 25-1390): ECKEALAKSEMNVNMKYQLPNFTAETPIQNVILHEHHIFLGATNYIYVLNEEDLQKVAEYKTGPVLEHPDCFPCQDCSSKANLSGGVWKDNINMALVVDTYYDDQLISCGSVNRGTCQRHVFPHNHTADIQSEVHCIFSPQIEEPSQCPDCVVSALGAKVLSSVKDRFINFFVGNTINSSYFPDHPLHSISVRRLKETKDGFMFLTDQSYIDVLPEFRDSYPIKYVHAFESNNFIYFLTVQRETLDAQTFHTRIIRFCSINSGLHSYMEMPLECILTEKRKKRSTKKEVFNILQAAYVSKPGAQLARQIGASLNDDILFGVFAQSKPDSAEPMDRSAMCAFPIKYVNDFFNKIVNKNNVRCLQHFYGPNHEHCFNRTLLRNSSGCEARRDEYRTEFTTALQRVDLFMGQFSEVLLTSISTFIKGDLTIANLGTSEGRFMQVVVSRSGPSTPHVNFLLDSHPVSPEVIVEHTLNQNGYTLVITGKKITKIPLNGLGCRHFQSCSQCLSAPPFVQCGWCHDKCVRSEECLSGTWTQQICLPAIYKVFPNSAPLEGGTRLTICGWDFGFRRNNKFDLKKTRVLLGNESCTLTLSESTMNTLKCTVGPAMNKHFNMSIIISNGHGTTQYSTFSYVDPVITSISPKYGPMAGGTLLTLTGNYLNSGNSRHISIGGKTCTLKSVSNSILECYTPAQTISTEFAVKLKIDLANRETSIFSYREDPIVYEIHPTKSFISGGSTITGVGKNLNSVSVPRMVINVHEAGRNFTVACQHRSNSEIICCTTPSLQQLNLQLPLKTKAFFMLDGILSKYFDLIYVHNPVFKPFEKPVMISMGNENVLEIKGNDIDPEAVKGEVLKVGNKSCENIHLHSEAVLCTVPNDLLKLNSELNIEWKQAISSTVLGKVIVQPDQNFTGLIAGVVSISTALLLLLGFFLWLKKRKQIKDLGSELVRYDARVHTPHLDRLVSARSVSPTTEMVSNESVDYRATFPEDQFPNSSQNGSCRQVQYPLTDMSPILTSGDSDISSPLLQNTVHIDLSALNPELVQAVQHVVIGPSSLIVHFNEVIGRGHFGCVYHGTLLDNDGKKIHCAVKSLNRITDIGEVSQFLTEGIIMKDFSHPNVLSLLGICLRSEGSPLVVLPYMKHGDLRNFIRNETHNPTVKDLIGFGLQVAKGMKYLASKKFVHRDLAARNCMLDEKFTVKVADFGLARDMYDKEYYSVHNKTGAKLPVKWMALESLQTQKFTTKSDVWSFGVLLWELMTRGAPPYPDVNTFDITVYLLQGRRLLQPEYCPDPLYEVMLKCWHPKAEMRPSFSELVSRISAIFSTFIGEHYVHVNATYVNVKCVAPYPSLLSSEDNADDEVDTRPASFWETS
T2 sequence (P08581 25-1390): as above

Consider `Cn1cc(-c2ccc3nnc(Sc4ccc5nn(C)cc5c4)n3n2)cn1` [Example 1, 6-(1-Methyl-1H-pyrazol-4-yl)-3-(2-methyl-2H-indazol-5-ylthio)-[1,2,4]triazolo[4,3-b]pyridazine], for which the inhibition at 16 mg/kg in assay [1] (16 mg/Kg dose, 2 h, experiment separate from head to head study, read-out: Single dose IVTI % inhibition after 2 h) is 98%. In addition, in assay [1] (S114 tumors in nude mice, read-out: TEC50), the EC50 was 180 nM. Further, the inhibition at 8 mg/kg in assay [1] (S114 tumors, oral 8 mg/kg, 8 h, read-out: % phos-Met inhibition at 8 mg/kg after 8 h) came to 75%. Besides, the inhibition at 20 mg/kg in assay [1] (S114 tumors, oral 20 mg/kg, 8 h, read-out: % phos-Met inhibition at 20 mg/kg after 8 h) came out at 93%. Further, the ED50 (in general, the dose that gives a 50% effect, or the effect in half of the subjects) in assay [1] (oral gavage, S114 tumors in nude mice) turned out to be 0.32 mg/kg. For the same molecule, the IC50 – broadly, the concentration needed to halve the response being measured – in assay [2] came to 36 nM. Besides, the “Kinases inhibited in Cerep screening of 99 kinases” value on 99 kinases is listed as “inhibited only c-Met”.
